# Numbers after ± are expanded uncertainties.
# Test: wn = mass fraction of the nth substance listed
# Settings: Gas, sonar gas analyzer
smiles,measurement,setting,value
FC(F)(F)C(F)(F)C(F)(F)F [octafluoropropane] + FC(F)(F)C(F)(F)C(F)(F)C(F)(F)F,speed of sound,"248.2 K, 10 kPa, w1 = 0.83",105.12 ± 1.2 m/s
same,speed of sound,"248.2 K, 13 kPa, w1 = 0.83",105.03 ± 1.2 m/s
same,speed of sound,"248.2 K, 20 kPa, w1 = 0.83",104.84 ± 1.2 m/s
same,speed of sound,"248.2 K, 27 kPa, w1 = 0.83",104.58 ± 1.2 m/s
same,speed of sound,"248.2 K, 30 kPa, w1 = 0.83",104.45 ± 1.2 m/s
same,speed of sound,"248.2 K, 33 kPa, w1 = 0.83",104.36 ± 1.2 m/s
same,speed of sound,"248.2 K, 40 kPa, w1 = 0.83",104.12 ± 1.2 m/s
same,speed of sound,"248.2 K, 47 kPa, w1 = 0.83",103.84 ± 1.2 m/s
same,speed of sound,"248.2 K, 50 kPa, w1 = 0.83",103.75 ± 1.2 m/s
same,speed of sound,"248.2 K, 53 kPa, w1 = 0.83",103.57 ± 1.2 m/s
same,speed of sound,"248.2 K, 60 kPa, w1 = 0.83",103.27 ± 1.2 m/s
same,speed of sound,"248.2 K, 67 kPa, w1 = 0.83",103.07 ± 1.2 m/s
same,speed of sound,"259.2 K, 10 kPa, w1 = 0.397",102.59 ± 1.2 m/s
same,speed of sound,"259.2 K, 10 kPa, w1 = 0.83",107.4 ± 1.2 m/s
same,speed of sound,"259.2 K, 20 kPa, w1 = 0.397",102.16 ± 1.2 m/s
same,speed of sound,"259.2 K, 20 kPa, w1 = 0.83",107.18 ± 1.2 m/s
same,speed of sound,"259.2 K, 30 kPa, w1 = 0.397",101.68 ± 1.2 m/s
same,speed of sound,"259.2 K, 30 kPa, w1 = 0.83",106.95 ± 1.2 m/s
same,speed of sound,"259.2 K, 50 kPa, w1 = 0.397",101.06 ± 1.2 m/s
same,speed of sound,"259.2 K, 50 kPa, w1 = 0.83",106.3 ± 1.2 m/s
same,speed of sound,"259.2 K, 70 kPa, w1 = 0.397",100.12 ± 1.2 m/s
same,speed of sound,"259.2 K, 70 kPa, w1 = 0.83",105.81 ± 1.2 m/s
same,speed of sound,"259.2 K, 100 kPa, w1 = 0.83",104.56 ± 1.2 m/s
same,speed of sound,"259.2 K, 150 kPa, w1 = 0.83",102.68 ± 1.2 m/s
same,speed of sound,"259.2 K, 200 kPa, w1 = 0.83",101.95 ± 1.2 m/s
same,speed of sound,"271.3 K, 10 kPa, w1 = 0.83",109.58 ± 1.2 m/s
same,speed of sound,"271.3 K, 20 kPa, w1 = 0.83",109.17 ± 1.2 m/s
same,speed of sound,"271.3 K, 30 kPa, w1 = 0.83",108.68 ± 1.2 m/s
same,speed of sound,"271.3 K, 50 kPa, w1 = 0.83",107.95 ± 1.2 m/s
same,speed of sound,"271.3 K, 70 kPa, w1 = 0.83",107.66 ± 1.2 m/s
same,speed of sound,"271.3 K, 100 kPa, w1 = 0.83",106.4 ± 1.2 m/s
same,speed of sound,"271.3 K, 150 kPa, w1 = 0.83",104.9 ± 1.2 m/s
same,speed of sound,"271.3 K, 200 kPa, w1 = 0.83",103.44 ± 1.2 m/s
same,speed of sound,"271.3 K, 250 kPa, w1 = 0.83",102.59 ± 1.2 m/s
same,speed of sound,"271.4 K, 10 kPa, w1 = 0.397",104.64 ± 1.2 m/s
same,speed of sound,"271.4 K, 20 kPa, w1 = 0.397",104.3 ± 1.2 m/s
same,speed of sound,"271.4 K, 30 kPa, w1 = 0.397",103.82 ± 1.2 m/s
same,speed of sound,"271.4 K, 50 kPa, w1 = 0.397",103.1 ± 1.2 m/s
same,speed of sound,"271.4 K, 70 kPa, w1 = 0.397",102.4 ± 1.2 m/s
same,speed of sound,"271.4 K, 100 kPa, w1 = 0.397",101.14 ± 1.2 m/s
same,speed of sound,"271.4 K, 150 kPa, w1 = 0.397",99.12 ± 1.2 m/s
same,speed of sound,"283.1 K, 10 kPa, w1 = 0.397",106.56 ± 1.2 m/s
same,speed of sound,"283.1 K, 10 kPa, w1 = 0.83",112.12 ± 1.2 m/s
same,speed of sound,"283.1 K, 20 kPa, w1 = 0.397",106.36 ± 1.2 m/s
same,speed of sound,"283.1 K, 20 kPa, w1 = 0.83",111.72 ± 1.2 m/s
same,speed of sound,"283.1 K, 30 kPa, w1 = 0.397",105.98 ± 1.2 m/s
same,speed of sound,"283.1 K, 30 kPa, w1 = 0.83",111.47 ± 1.2 m/s
same,speed of sound,"283.1 K, 50 kPa, w1 = 0.397",105.5 ± 1.2 m/s
same,speed of sound,"283.1 K, 50 kPa, w1 = 0.83",111.19 ± 1.2 m/s
same,speed of sound,"283.1 K, 70 kPa, w1 = 0.397",104.76 ± 1.2 m/s
same,speed of sound,"283.1 K, 70 kPa, w1 = 0.83",110.59 ± 1.2 m/s
same,speed of sound,"283.1 K, 100 kPa, w1 = 0.397",103.71 ± 1.2 m/s
same,speed of sound,"283.1 K, 100 kPa, w1 = 0.83",109.75 ± 1.2 m/s
same,speed of sound,"283.1 K, 150 kPa, w1 = 0.397",101.86 ± 1.2 m/s
same,speed of sound,"283.1 K, 150 kPa, w1 = 0.83",108.4 ± 1.2 m/s
same,speed of sound,"283.1 K, 200 kPa, w1 = 0.397",100.08 ± 1.2 m/s
same,speed of sound,"283.1 K, 200 kPa, w1 = 0.83",106.92 ± 1.2 m/s
same,speed of sound,"283.1 K, 250 kPa, w1 = 0.83",105.34 ± 1.2 m/s
same,speed of sound,"283.1 K, 297 kPa, w1 = 0.83",103.72 ± 1.2 m/s
same,speed of sound,"283.1 K, 350 kPa, w1 = 0.83",101.99 ± 1.2 m/s
same,speed of sound,"283.1 K, 400 kPa, w1 = 0.83",100.1 ± 1.2 m/s
same,speed of sound,"294 K, 10 kPa, w1 = 0.397",109.01 ± 1.2 m/s
same,speed of sound,"294 K, 20 kPa, w1 = 0.397",108.7 ± 1.2 m/s
same,speed of sound,"294 K, 30 kPa, w1 = 0.397",108.4 ± 1.2 m/s
same,speed of sound,"294 K, 50 kPa, w1 = 0.397",107.67 ± 1.2 m/s
same,speed of sound,"294 K, 70 kPa, w1 = 0.397",107.07 ± 1.2 m/s
same,speed of sound,"294 K, 100 kPa, w1 = 0.397",106.22 ± 1.2 m/s
same,speed of sound,"294 K, 150 kPa, w1 = 0.397",104.61 ± 1.2 m/s
same,speed of sound,"294 K, 200 kPa, w1 = 0.397",103.01 ± 1.2 m/s
same,speed of sound,"294.1 K, 10 kPa, w1 = 0.83",114.96 ± 1.2 m/s
same,speed of sound,"294.1 K, 20 kPa, w1 = 0.83",114.62 ± 1.2 m/s
same,speed of sound,"294.1 K, 30 kPa, w1 = 0.83",114.35 ± 1.2 m/s
same,speed of sound,"294.1 K, 50 kPa, w1 = 0.83",113.75 ± 1.2 m/s
same,speed of sound,"294.1 K, 70 kPa, w1 = 0.83",113.21 ± 1.2 m/s
same,speed of sound,"294.1 K, 100 kPa, w1 = 0.83",112.3 ± 1.2 m/s
same,speed of sound,"294.1 K, 150 kPa, w1 = 0.83",111 ± 1.2 m/s
same,speed of sound,"294.1 K, 200 kPa, w1 = 0.83",109.85 ± 1.2 m/s
same,speed of sound,"301.4 K, 10 kPa, w1 = 0.83",116.15 ± 1.2 m/s
same,speed of sound,"301.4 K, 20 kPa, w1 = 0.83",116.05 ± 1.2 m/s
same,speed of sound,"301.4 K, 30 kPa, w1 = 0.83",115.78 ± 1.2 m/s
same,speed of sound,"301.4 K, 50 kPa, w1 = 0.83",115.29 ± 1.2 m/s
same,speed of sound,"301.4 K, 70 kPa, w1 = 0.83",114.72 ± 1.2 m/s
same,speed of sound,"301.4 K, 100 kPa, w1 = 0.83",114.03 ± 1.2 m/s
same,speed of sound,"301.4 K, 150 kPa, w1 = 0.83",112.72 ± 1.2 m/s
same,speed of sound,"301.4 K, 200 kPa, w1 = 0.83",111.59 ± 1.2 m/s
same,speed of sound,"302.1 K, 10 kPa, w1 = 0.397",110.14 ± 1.2 m/s
same,speed of sound,"302.1 K, 20 kPa, w1 = 0.397",109.74 ± 1.2 m/s
same,speed of sound,"302.1 K, 30 kPa, w1 = 0.397",109.67 ± 1.2 m/s
same,speed of sound,"302.1 K, 50 kPa, w1 = 0.397",109.29 ± 1.2 m/s
same,speed of sound,"302.1 K, 70 kPa, w1 = 0.397",108.73 ± 1.2 m/s
same,speed of sound,"302.1 K, 100 kPa, w1 = 0.397",107.89 ± 1.2 m/s

# — the NIST ThermoML archive (doi:10.1016/j.fluid.2010.01.027)
